Patent US7498406B2, “Substantially cell membrane impermeable compound and use thereof” (priority 1999, dated 2009)
Entries after “also recorded” stand apart in the source; their conditions may differ.

Key:
HT1080 = experiment: Proliferation of cultured cells, 72 hr; assay type: cell-based, human; details: 5% FCS, 0 to 1 mM
Experimental: FIG. 19. Effect of GSAO on proliferation of non-endothelial cells. 15,000 BxPC-3 (part A), HT1080 (part B), 3T3 (part C) or BVSM (part D) cells per well were seeded into gelatinised 24-well culture plates and allowed to attach for 24 hr. The media was then replaced with DMEM containing 0 to 1 mM GSAO or GSAA and either 5% BCS (part D) or 5% FCS (parts A, B and C). Cells were cultured for 72 hr and then dispersed and counted. The dotted lines indicate the cell number in control wells containing DMEM and 2% BCS (part D) or 2% FCS (parts A, B and C) which represented no to limited proliferation. The data points and errors represent the mean and range of duplicate wells.
BCE (Folkman et al. 1979), BAE, BxPC-3 (ATCC, Bethesda, Md.), HT1080 (Jiang et al., 1999), 3T3 (ATCC, Bethesda, Md.) and BVSM (Hogg et al., 1997) cells were harvested and cultured as indicated. Cells (0.5 mL of 30,000 or 100,000 cells per mL) were seeded into gelatinized 24-well culture plates (Corning Costar, Corning, N.Y.) in Dulbecco's Modified Eagle's Medium (DMEM, JHR Bioscience, Lenexa, Kans.) containing 10% fetal calf serum (FCS, Intergen Comp., Purchase, N.Y.) and 1% Glutamine Pen-Strep (GPS, Irvine Scientific, Santa Ana, Va.) and allowed to attach for 24 hr in 10% CO2 at 37° C. The media was then replaced with DMEM and 1% GPS containing 0 to 1 mM GSAO or GSAA and either 5% bovine calf serum (BCS, HyClone, Logan, Utah) and 1 ng per mL FGF-2 (Genzyme, Cambridge, Mass.) or 5% BCS and 10 ng per mL VEGF (Genzyme, Cambridge, Mass.) for BCE cells, 5% or 10% BCS for BAE cells, 5% BCS for BVSM cells, and 5% FCS for BxPC-3, HT1080 and 3T3 cells. Cells were cultured for 0 to 72 hr in 10% CO2 at 37° C. then dispersed in trypsin/EDTA (GibcoBRL, Granc Island, N.Y.), resuspended in Coulter balanced electrolyte solution and counted with a Z1 Coulter counter (Coulter Corp., Miami, Fla.) in all experiments there were two control wells containing DMEM with 1% GPS and either 5% BCS for BCE cells, 2% BCS for BAE and BVSM cells, or 2% FCS for BxPC-3, HT1080 and 3T3 cells. These wells represented no to limited proliferation.

BxPC-3 tumours = experiment: Histological analysis of BxPC-3 tumours (CD-31, PCNA, TUNEL); assay type: in vivo, SCID mice; details: for necrosis of treated tumours: not shown
Experimental: FIG. 26. Inhibition of angiogenesis in human pancreatic tumours by GSAO. Histological sections of the BxPC-3 tumours shown in part C of FIG. 23 from GSAA and GSAO-treated mice were analysed for angiogenesis (CD-31), proliferation (PCNA) and apoptosis (TUNEL).
The tumours shown in FIG. 23C were fixed in Buffered Formalde-Fresh (Fisher Scientific, Fair Lawn, N.J.), embedded in paraffin and […] sections were cut and placed on glass slides. Sections were stained with haematoxylin and eosin or for CD31, PCNA or fragmented DNA (TUNEL). Sections were incubated overnight at 4° C. with a […] of anti-mouse CD-31 antibody (PharMingen, San Diego, Calif.) followed by a 1:200 dilution of biotinylated anti-rat secondary antibody (Vestor, Burlingame, Calif.). The staining was enhanced by tyramide amplification (New England Nuclear, Boston, Mass.). Staining for PCNA was performed as described by Holmgren et al. (1995) while TUNEL labeling of fragmented DNA was performed according to Gavrielli et al. (1992).
Vascular density was determined by selecting 3 tumours, including the smallest and largest, from the control and treatment groups. […] The highest of the three counts was the value taken and two sections from each tumour was examined. The proliferative index was estimated by the percentage of cells scored under 400× magnification (Holmgren et al., 1995). A minimum of 1000 cells was counted in two separate sections. The apoptotic index was estimated by the percentage of cells scored under 400× magnification. A minimum of 1500 cells was counted in two separate sections (Holmgren et al., 1995).

chick CAM = experiment: Chick chorioallantoic membrane (CAM) angiogenesis; assay type: in vivo; details: for inhibition of CAM angiogenesis (avascular zones): 5, 10 or 50 μg per pellet, 48 hr; for adverse effect on the wellbeing of the chick embryo: up to 50 μg per pellet
Experimental: FIG. 22. Inhibition of CAM angiogenesis by GSAO. Fertilised 3 day-old white Leghorn eggs were cracked, the embryos placed in petri dishes and incubated for 3 days. Methylcellulose discs containing 5, 10 or 50 μg of either GSAA or GSAO were then applied to the CAM of individual embryos and incubated for 48 hr. The CAMs were scored for no obvious effect or inhibition of angiogenesis as defined by avascular zones. Photographs of CAM's after incubation with discs containing 10 μg of either GSAA (top) or GSAO (bottom) is shown in the left hand panel. The dotted circle indicates the placement of the disc.
The chick CAM assay has been used for the detection and analysis of angiogenesis inhibition (Nguyen et al., 1994). Fertilised 3 day-old white Leghorn eggs (Spafas, Norwich, Conn.) were cracked, the embryos with intact yolks placed in 20×100 mm petri dishes and incubated for 3 days at 37° C. and 3% CO2 (Folkman, 1995). Methylcellulose (Fisher Scientific, Fair Lawn, N.J.) discs containing 5, 10 or 50 μg of either GSAA or GSAO were then applied to the CAM of individual embryos and incubated for 48 hr at 37° C. and 3% CO2. The discs were made by desiccation of GSAA or GSAO in 10 μl of 0.45% methycellulose on teflon rods. The CAMs were observed using a stereomicroscope and scored for no obvious effect or inhibition of CAM angiogenesis as defined by avascular zones. On some occasions CAM blood vessels were injected with India ink and photographed.

Lewis lung tumours = experiment: Tumour growth, oral administration in water; assay type: in vivo, C57Bl6/J mice; details: ~10 mg per kg per day in water
Experimental: FIG. 28. Inhibition of human pancreatic carcinoma and murine Lewis lung tumour growth by oral administration of GSAO. BxPC-3 or Lewis lung tumours were established in the proximal midline of female 7 to 9 week old SCID or C57Bl6/J mice, respectively, SCID mice bearing ˜0.5 g BxPC-3 tumours or C57Bl6/J mice bearing 0.1 g Lewis lung tumours were randomised into two groups (n=2 for BxPC-3 and n=3 for Lewis lung) and treated with either GSAA or GSAO (0.05 mg per mL) in their water. Mice drink ˜5 mL of water per day and therefore consumed ˜10 mg GSAO or GSM per kg per day. The water contained 100 mM glycine to minimise oxidation of GSAO. Tumour volume and animal weight was measured every 3 days. The data points and errors represent the mean and SE of the tumour volumes.
SCID mice bearing subcutaneous human pancreatic carcinoma tumours or C57Bl6/J mice bearing subcutaneous murine Lewis lung tumours were fed either ˜10 mg per kg per day GSAO or GSAA in their water.

Row | Compound | Proliferation IC50 (HT1080) | necrosis of treated tumours (BxPC-3 tumours) | inhibition of CAM angiogenesis (avascular zones) (chick CAM) | adverse effect on the wellbeing of the chick embryo (chick CAM) | reduction of the rate of Lewis lung tumour growth (Lewis lung tumours) | proliferative index of tumour cells (PCNA) (BxPC-3 tumours; GSAO- vs GSAA-treated) | tumour angiogenesis (CD-31) (BxPC-3 tumours; GSAO- vs GSAA-treated, 10 mg per kg per day, day 31, p<0.001) | apoptotic index of tumour cells (TUNEL) (BxPC-3 tumours; GSAO- vs GSAA-treated, p=0.05)
1 | N[C@@H](CCC(=O)N[C@@H](CSCC(=O)Nc1ccc([As](=O)(O)O)cc1)C(=O)NCC(=O)O)C(=O)O [GSAA, 4-(N-(S-glutathionylacetyl)amino)phenylarsonic acid, reference compound] | no significant effect | no macroscopic or microscopic signs of necrosis | did not inhibit CAM angiogenesis; also recorded: no effects on CAM angiogenesis | Neither GSAA nor GSAO had any apparent adverse effect | no significant effect | – | – | –
2 | NC(CCC(=O)NC(CSCC(=O)Nc1ccc([As]=O)cc1)C(=O)NCC(=O)O)C(=O)O (stereo not shown) [GSAO, 4-(N-(S-glutathionylacetyl)amino)-phenylarsenoxide] | did not affect the proliferation | no macroscopic or microscopic signs of necrosis | inhibited angiogenesis in the CAM in a concentration-dependent manner | Neither GSAA nor GSAO had any apparent adverse effect | ~50% | no significant difference | marked suppression of angiogenesis; also recorded: marked reduction in angiogenesis | increase in the apoptotic index
